Reference: US20250230193A1, “CYCLIC COMPOUND HAVING SELECTIVE KRAS INHIBITORY EFFECT ON HRAS AND NRAS” (CHUGAI SEIYAKU KABUSHIKI KAISHA, priority 2022, published 2025)
Where a SMILES comes first, the peptide text is derived from it. Bridges are numbered along the chain shown (N, C = ends). [ ]: non-standard residue; d: D form. hPhe(3-Cl-4-CF3) = N[C@@H](CCc1ccc(C(F)(F)F)c(Cl)c1)C(=O)O; NPrPhe(4-CF3) = CCCN[C@@H](Cc1ccc(C(F)(F)F)cc1)C(=O)O; NMeGly(cPent) = CN[C@H](C(=O)O)C1CCCC1; Hyp = O=C(O)[C@@H]1C[C@@H](O)CN1; NMeL = CN[C@@H](CC(C)C)C(=O)O; NMeA = CN[C@@H](C)C(=O)O; Ac5c = NC1(C(=O)O)CCCC1; Aze = O=C(O)[C@@H]1CCN1; Sar = CNCC(=O)O

Key:
[1] = molecular target: GDP-bound NRAS wild-type protein (Homo sapiens, UniProt P01111); assay: Binding to NRAS by surface plasmon resonance (SPR), Single Cycle Kinetics; details: SPR; for NRAS/KRAS (ratio of KD value with respect to NRAS to KD value with respect to KRAS) / NRAS/KRAS (ratio of KD value for NRAS to KD value for KRAS): GDP-bound NRAS wild-type vs GDP-bound KRAS wild-type
[2] = molecular target: GDP-bound HRAS wild-type protein (Homo sapiens, UniProt P01112); assay: Binding to HRAS by surface plasmon resonance (SPR), Single Cycle Kinetics; details: SPR; for HRAS/KRAS (ratio of KD value with respect to HRAS to KD value with respect to KRAS) / HRAS/KRAS (ratio of KD value for HRAS to KD value for KRAS): GDP-bound HRAS wild-type vs GDP-bound KRAS wild-type
Sequence of GDP-bound HRAS wild-type protein (P01112 whole entry): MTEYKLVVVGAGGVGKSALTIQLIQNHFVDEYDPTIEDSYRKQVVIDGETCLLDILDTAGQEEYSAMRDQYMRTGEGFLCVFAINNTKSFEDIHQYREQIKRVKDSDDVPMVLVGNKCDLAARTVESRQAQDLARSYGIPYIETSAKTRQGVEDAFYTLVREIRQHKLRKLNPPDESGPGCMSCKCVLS

Sequence of GDP-bound NRAS wild-type protein (P01111 whole entry): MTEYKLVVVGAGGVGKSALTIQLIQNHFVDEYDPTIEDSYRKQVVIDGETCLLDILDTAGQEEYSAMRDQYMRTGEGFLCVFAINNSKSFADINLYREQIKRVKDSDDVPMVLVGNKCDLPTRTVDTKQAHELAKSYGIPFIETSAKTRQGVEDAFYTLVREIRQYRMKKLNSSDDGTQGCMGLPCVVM

## CCOC[C@H]1C(=O)N[C@@H]([C@@H](C)CC)C(=O)N(C)CC(=O)N(C)[C@H]2C/C=C\CCN(C2=O)[C@@H](Cc2ccc(C)cc2)C(=O)N(C)CC(=O)N[C@@H](CCc2ccc(C(F)(F)F)c(OC)c2)C(=O)N2C[C@H](C)C[C@H]2C(=O)NC2(CC(C)(C)C2)C(=O)N(C)[C@@H](C2CCCC2)C(=O)N(C)[C@H](C(=O)N(C)C)CC(=O)N1C [PP2393]
[1]
  NRAS/KRAS (ratio of KD value with respect to NRAS to KD value with respect to KRAS): A (a compound having 10 or more and less than 20 is denoted as A)
[2]
  HRAS/KRAS (ratio of KD value with respect to HRAS to KD value with respect to KRAS): A (a compound having 10 or more and less than 20 is denoted as A)

## CCCN1C(=O)[C@@H]2CCN2C(=O)[C@H](C)N(C)C(=O)[C@H]([C@@H](C)CC)NC(=O)[C@H](CC(C)C)N(C)C(=O)C[C@@H](C(=O)N(C)C)NC(=O)[C@H](C2CCCC2)N(C)C(=O)C2(CCCC2)NC(=O)[C@@H]2C[C@@H](OCC)CN2C(=O)[C@H](CCc2ccc(C(F)(F)F)c(Cl)c2)NC(=O)CN(C)C(=O)[C@@H]1Cc1ccc(C(F)(F)F)cc1 [PP0383] ([NMeL]I[NMeA][Aze][NPrPhe(4-CF3)][Sar][hPhe(3-Cl-4-CF3)][Hyp](Et)[Ac5c][NMeGly(cPent)]D-NMe2; lactam N-11)
[1]; KD ratio NRAS/KRAS
  NRAS/KRAS (ratio of KD for GDP-bound NRAS wild-type to KD for KRAS): C (A compound having a KD ratio of 0.1 or more and less than 3 is denoted as C)
[2]; KD ratio HRAS/KRAS
  HRAS/KRAS (ratio of KD for GDP-bound HRAS wild-type to KD for KRAS): B (a compound having 3 or more and less than 10 is denoted as B)

## CCO[C@@H]1C[C@H]2C(=O)NC3(CCC3)C(=O)N(C)[C@@H](C(CC)CC)C(=O)N(C)[C@H](CC)CC(=O)N(C)[C@@H](CC3CC3)C(=O)N[C@@H]([C@@H](C)CC)C(=O)N(C)CC(=O)N(C)[C@H]3C/C=C\CCN(C3=O)[C@@H](Cc3ccc(C(F)(F)F)cc3)C(=O)N(C)CC(=O)N[C@@H](CCc3cc(F)c(C(F)(F)F)c(F)c3)C(=O)N2C1 [PP1630]
[1]
  NRAS/KRAS (ratio of KD value for NRAS to KD value for KRAS): A (a compound having 10 or more and less than 20 is denoted as A)
[2]
  HRAS/KRAS (ratio of KD value for HRAS to KD value for KRAS): A (a compound having 10 or more and less than 20 is denoted as A)

## CCOC[C@H]1C(=O)N[C@@H]([C@@H](C)CC)C(=O)N2CCC[C@H]2C(=O)N(C)[C@H]2C/C=C\CCN(C2=O)[C@@H](Cc2ccc(C)cc2)C(=O)N(C)CC(=O)N[C@@H](CCc2cc(F)c(C(F)(F)F)c(F)c2)C(=O)N2C[C@H](OCC)C[C@H]2C(=O)NC2(CC(C)(C)C2)C(=O)N(C)[C@@H](C2CCCC2)C(=O)N(C)[C@H](C(=O)N(C)CC)CC(=O)N1C [PP2428]
[1]
  NRAS/KRAS (ratio of KD value with respect to NRAS to KD value with respect to KRAS): A (a compound having 10 or more and less than 20 is denoted as A)
[2]
  HRAS/KRAS (ratio of KD value with respect to HRAS to KD value with respect to KRAS): A (a compound having 10 or more and less than 20 is denoted as A)

## CC[C@H](C)[C@@H]1NC(=O)[C@H](CC(C)C)N(C)C(=O)C[C@@H](C(=O)N2CCOCC2)N(C)C(=O)[C@H](C2CCCC2)N(C)C(=O)C2(CCOCC2)NC(=O)[C@@H]2CCCN2C(=O)[C@H](CCc2cc(F)c(C(F)(F)F)c(F)c2)NC(=O)CN(C)C(=O)[C@H](Cc2ccc(C(F)(F)F)cc2)N2CCCC[C@@H](C2=O)N(C)C(=O)CN(C)C1=O [PP0564]
[1]; KD ratio NRAS/KRAS
  NRAS/KRAS (ratio of KD value with respect to GDP-bound NRAS wild-type protein to KD value with respect to KRAS): B (a compound having 3 or more and less than 10 is denoted as B)
[2]; KD ratio HRAS/KRAS
  HRAS/KRAS (ratio of KD value with respect to GDP-bound HRAS wild-type protein to KD value with respect to KRAS): B (a compound having 3 or more and less than 10 is denoted as B)

## CCO[C@@H]1C[C@H]2C(=O)NC3(CCC3)C(=O)N(C)[C@@H](C3CCCC3)C(=O)N(C)[C@H](C(=O)N(C)C)CC(=O)N(C)[C@@H](Cc3cccnc3)C(=O)N[C@@H]([C@@H](C)CC)C(=O)N(C)CC(=O)N(C)[C@H]3CCCCN(C3=O)[C@@H](Cc3ccc(C(F)(F)F)cc3)C(=O)N(C)CC(=O)N[C@@H](CCc3cc(F)c(C(F)(F)F)c(F)c3)C(=O)N2C1 [PP0703]
[1]; KD ratio NRAS/KRAS
  NRAS/KRAS (ratio of KD value with respect to GDP-bound NRAS wild-type protein to KD value with respect to KRAS): C (A compound having a KD ratio of 0.1 or more and less than 3 is denoted as C)
[2]; KD ratio HRAS/KRAS
  HRAS/KRAS (ratio of KD value with respect to GDP-bound HRAS wild-type protein to KD value with respect to KRAS): B (a compound having 3 or more and less than 10 is denoted as B)

## CC[C@H](C)[C@@H]1NC(=O)[C@H](CC(C)C)N(C)C(=O)C[C@@H](C(=O)N2CCOCC2)N(C)C(=O)[C@H](C2CCCC2)N(C)C(=O)C2(CC2)NC(=O)[C@@H]2CCCN2C(=O)[C@H](CCc2cc(F)c(C(F)(F)F)c(F)c2)NC(=O)CN(C)C(=O)[C@H](Cc2ccc(C(F)(F)F)cc2)N2CCCCC[C@@H](C2=O)N(C)C(=O)CN(C)C1=O [PP0496]
[1]; KD ratio NRAS/KRAS
  NRAS/KRAS (ratio of KD value with respect to GDP-bound NRAS wild-type protein to KD value with respect to KRAS): B (a compound having 3 or more and less than 10 is denoted as B)
[2]; KD ratio HRAS/KRAS
  HRAS/KRAS (ratio of KD value with respect to GDP-bound HRAS wild-type protein to KD value with respect to KRAS): B (a compound having 3 or more and less than 10 is denoted as B)

## CCO[C@@H]1C[C@H]2C(=O)N(C)C3(CCC3)C(=O)N(C)[C@@H](C3CCCC3)C(=O)N(C)[C@H](C(=O)N(C)C)CC(=O)N(C)[C@@H](C3CC3)C(=O)N[C@@H]([C@@H](C)CC)C(=O)N(C)CC(=O)N(C)[C@H]3C/C=C\CCN(C3=O)[C@@H](Cc3ccc(C)cc3)C(=O)N(C)CC(=O)N[C@@H](CCc3cc(F)c(C(F)(F)F)c(F)c3)C(=O)N2C1 [PP1783]
[1]
  NRAS/KRAS (ratio of KD value for NRAS to KD value for KRAS): A (a compound having 10 or more and less than 20 is denoted as A)
[2]
  HRAS/KRAS (ratio of KD value for HRAS to KD value for KRAS): B (a compound having 3 or more and less than 10 is denoted as B)
